Here are results for 25 molecules from patent US20030044399A1, “Method of treatment” (SmithKline Beecham Corporation, priority 1998, published 2003).

SMILES strings stand for the structures.

In assay [1] the target is Cruzain (Trypanosoma cruzi, UniProt P25779). The experiment in a line: Cysteine protease inhibition, progress curve method, cruzain. In kind it is biochemical. To be noted: 4 uM Ac-Lys-Glu-Lys-Leu-Arg-AMC, 100 mM Na acetate pH 5.5, 5 mM cysteine; read-out: Cruzain Ki. The method, then:
(§1) Standard assay conditions for the determination of kinetic constants used 10 uM fluorogenic peptide substrate, Cbz-Phe-Arg-AMC for the cysteine proteases from Leishmania spp and Schistosoma Mansoni, Cbz-Leu-Arg-AMC for the cysteine proteases from Plasmodium falciparum and Trypanosoma brucei rhodesiensi, and Ac-Lys-Glu-Lys-Leu-Arg-AMC (4 uM final substrate concentration) for the cysteine protease from Trypoanosoma cruzi, and were determined in 100 mM Na acetate at pH 5.5 containing 5 mM cysteine. Stock substrate solutions were prepared at concentrations of […] in DMSO with 10 uM (4 uM for Ac-Lys-Glu-Lys-Leu-Arg-AMC) final substrate concentration in the assays. The final DMSO concentration was 2% and the final volume was 100 uL. All assays were conducted at ambient temperature. Product progress curves were generated over 20 to 30 minutes following formation of AMC product.
(§2) Potential inhibitors were evaluated using the progress curve method. Assays were carried out in the presence of variable concentrations of test compound. Reactions were initiated by addition of enzyme to buffered solutions of inhibitor and substrate. Data analysis was conducted according to one of two procedures depending on the appearance of the progress curves in the presence of inhibitors. For those compounds whose progress curves were linear, apparent inhibition constants (Ki,app) were calculated according to equation 1 (Brandt et al., Biochemitsry, 1989, 28, 140):
(§3) v=VmA/[Ka(1+I/Ki,app)+A] (1)
(§4) Where v is the velocity of the reaction with maximal velocity Vm, A is the concentration of substrate with Michaelis constant of Ka, and I is the concentration of inhibitor.
(§5) [AMC]=vsst+(v0−vss)[1−exp (−kobst)]/kobs (2)
(§6) Where [AMC] is the concentration of product formed over time t, v0 is the initial reaction velocity and vss is the final steady state rate. Values for kobs were then analyzed as a linear function of inhibitor concentration to generate an apparent second order rate constant (kobs/inhibitor concentration or kobs/[I]) describing the time-dependent inhibition. A complete discussion of this kinetic treatment has been fully described (Morrison et al., Adv. Enzymol. Relat. Areas Mol. Biol., 1988, 61, 201).
(§7) Exemplary inhibition data for the compounds used in the present method collected in accordance with the above-described procedure are listed in Table I.

Assay [2] addresses Rhodazain (Trypanosoma brucei rhodesiense, UniProt Q95PM0). The experiment in a line: Cysteine protease inhibition, progress curve method, rhodazain. It is filed as biochemical, Trypanosoma brucei rhodesiensi. To be noted: Rhodazain Ki (nM), 10 uM Cbz-Leu-Arg-AMC, 100 mM Na acetate pH 5.5, 5 mM cysteine. The method, then:
as §1, §2, §3, §4, §5, §6, §7

Cruzain, sequence (P25779 123-337): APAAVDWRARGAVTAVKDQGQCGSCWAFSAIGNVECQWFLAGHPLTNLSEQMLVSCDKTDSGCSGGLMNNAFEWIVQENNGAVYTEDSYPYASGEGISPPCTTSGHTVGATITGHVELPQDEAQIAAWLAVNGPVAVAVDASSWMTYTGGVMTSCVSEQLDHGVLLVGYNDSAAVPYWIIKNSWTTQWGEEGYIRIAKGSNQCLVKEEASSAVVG
Rhodazain, sequence (Q95PM0 entry or part of it): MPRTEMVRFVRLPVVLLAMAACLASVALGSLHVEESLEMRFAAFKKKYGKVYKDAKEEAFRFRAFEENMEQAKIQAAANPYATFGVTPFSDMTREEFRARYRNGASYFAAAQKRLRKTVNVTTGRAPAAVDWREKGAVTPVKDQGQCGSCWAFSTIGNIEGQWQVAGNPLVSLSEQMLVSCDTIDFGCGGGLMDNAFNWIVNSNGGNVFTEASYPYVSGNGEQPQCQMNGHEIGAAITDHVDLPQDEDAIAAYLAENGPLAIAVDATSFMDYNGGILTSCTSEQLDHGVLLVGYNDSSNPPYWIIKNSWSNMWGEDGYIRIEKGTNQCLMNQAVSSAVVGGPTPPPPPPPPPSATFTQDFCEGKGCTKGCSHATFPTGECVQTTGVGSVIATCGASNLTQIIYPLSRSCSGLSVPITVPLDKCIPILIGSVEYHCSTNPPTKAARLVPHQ

The term Ki denotes a dissociation constant, usually derived from enzyme kinetics or from competition with a known ligand. Turning to `Cc1c(C(=O)N[C@@H](CC(C)C)C(=O)N[C@H]2CCCN(S(=O)(=O)c3ccccc3F)CC2=O)oc2ccccc12` [Example 94, 3-methylbenzofuran-2-carboxylic acid-{(S)-1-[1-(2-fluoro-benzenesulfonyl)-3-oxo-azepan-4-ylcarbamoyl]-3-methyl-butyl}-amide], the Ki in assay [1] is 8.6 nM; in assay [2], 9.4 nM.

For the molecule `CC(C)CC(NC(=O)c1ccc(F)cc1)C(=O)N[C@@H]1CCCN(S(=O)(=O)c2cccc[n+]2[O-])CC1=O` (stereo partly drawn) [Example 77, 4-Fluoro-{(S)-3-methyl-1-[3-oxo-1-(1-oxy-pyridine-2-sulfonyl)-azepan-4-carbamoyl]-butyl}-benzamide], the Ki was 15 nM in assay [1] and 7.9 nM in assay [2].

In the case of `CC(C)C[C@@H](NC(=O)c1cc2ccccc2s1)C(=O)N[C@@H]1CCCN(S(=O)(=O)c2ccccn2)CC1=O` (stereo in doubt) [Example 31, Benzo[b]thiophene-2-carboxylic acid {(S)-3-methyl-1-[3-oxo-1-(pyridine-2-sulfonyl)-azepan-4-ylcarbamoyl]-butyl}amide], the inhibition constant (Ki) in assay [1] is 7.2 nM; in assay [2], 5 nM.

For `CC(C)C[C@@H](NC(=O)c1ccc2ncccc2c1)C(=O)N[C@@H]1CCCN(S(=O)(=O)c2ccccn2)CC1=O` (stereo in doubt) [Example 25, Quinoline-6-carboxylic acid {(S)-3-methyl-1-[3-oxo-1-(pyridine-2-sulfonyl)-azepan-4-ylcarbamoyl]-butyl}amide], the figures for the Ki in assay [1] and in assay [2] were 8.3 nM and 8 nM, respectively.

On to `Cc1c(C(=O)N[C@H](CC(C)C)C(=O)N[C@H]2CCCN(S(=O)(=O)c3cccc[n+]3[O-])CC2=O)oc2ccc(F)cc12` (single isomer, unassigned) [Example 195], for which the inhibitory constant (Ki) in assay [1] is 9.4 nM; in assay [2], 6.6 nM.

On to `CC(C)C[C@@H](NC(=O)c1cc2sccc2s1)C(=O)N[C@@H]1CCCN(S(=O)(=O)c2ccccn2)CC1=O` (single isomer, unassigned) [Example 98], for which the Ki in assay [1] turned out to be 5.2 nM; in assay [2], 3.9 nM.

Molecule `COc1ccc(C(=O)NC(CC(C)C)C(=O)N[C@@H]2CCCN(S(C)(=O)=O)CC2=O)cc1OC` (stereo partly shown) [Example 113] had a Ki in assay [2] of 7.8 nM.

As to `COc1ccc2oc(C(=O)N[C@@H](CC(C)C)C(=O)N[C@H]3CCCN(S(C)(=O)=O)CC3=O)cc2c1` [Example 81, 5-Methoxy-benzofuran-2-carboxylic acid [(S)-1-(1-methanesulfonyl-3-oxo-azepan-4-ylcarbamoyl)-3-methyl-butyl]-amide], the inhibitory constant (Ki) in assay [2] turned out to be 7.2 nM.

In the case of `CC(C)C[C@H](NC(=O)c1ccc(-c2ccc(Cl)cc2)o1)C(=O)N[C@@H]1CCCN(S(=O)(=O)c2ccccn2)CC1=O` [Example 65, 5-(4-Chloro-phenyl)-furan-2-carboxylic acid {(S)-3-methyl-1-[3-oxo-1-(pyridine-2-sulfonyl)-azepan-4-ylcarbamoyl]-butyl}amide], the affinity in assay [2] corresponds to a Ki of 8.1 nM.

In assay [2], `O=C(N[C@H](Cc1ccccc1)C(=O)N[C@@H]1CCCN(S(=O)(=O)c2ccccn2)CC1=O)c1ccc2ccccc2n1` (stereo in doubt) [Example 180, Quinoline-2-carboxylic acid {(S)-1-[3-oxo-1-(pyridine-2-sulfonyl)-azepan-4-ylcarbamoyl]-2-phenyl-ethyl}-amide] displayed a Ki of 9.3 nM.

Take `Cc1c(C(=O)N[C@H](CC(C)C)C(=O)N[C@H]2CCCN(S(=O)(=O)c3cccc[n+]3[O-])CC2=O)oc2cc(F)ccc12` [Example 193, 6-Fluoro-3-methyl-benzofuran-2-carboxylic acid {(S)-3-methyl-1-[3-oxo-1-(1-oxy-pyridine-2-sulfonyl)-azepan-4-ylcarbamoyl]-butyl}-amide]: in assay [2], the affinity, expressed as Ki, was 8.1 nM.

For the molecule `CC(C)C[C@@H](NC(=O)c1ccc(-c2cccc(C(F)(F)F)c2)o1)C(=O)NC1CCCN(C(=O)c2cccc[n+]2[O-])CC1=O` (stereo partly drawn) [Example 186, 5-(3-Trifluoromethyl-phenyl)-furan-2-carboxylic acid ((S)-3-methyl-1-{3-oxo-1[-1-(1-oxy-pyridin-2-yl)-methanoyl]-azepan-4-ylcarbamoyl}-butyl)-amide], affinity in assay [2] was put at a Ki of 11 nM.

In assay [2], `CC(C)C[C@@H](NC(=O)c1ccc(-c2ccc([N+](=O)[O-])cc2)o1)C(=O)N[C@@H]1CCCN(S(=O)(=O)c2ccccn2)CC1=O` (stereo in doubt) [Example 36, 5-(4-Nitro-phenyl)-furan-2-carboxylic acid {(S)-3-methyl-1-[3-oxo-1-(pyridine-2-sulfonyl)-azepan-4-ylcarbamoyl]-butyl}amide] showed a Ki of 9.1 nM.

Turning to `Cc1coc(C(=O)N[C@@H](CC(C)C)C(=O)N[C@H]2CCCN(C(=O)Nc3ccccc3F)CC2=O)c1` [Example 222, 4-Methyl-furan-2-carboxylic acid {(S)-1-[1-(2-fluoro-phenylcarbamoyl)-3-oxo-azepan-4-ylcarbamoyl]-3-methyl-butyl}-amide], in assay [2], the inhibition constant (Ki) was found to be 4.9 nM.

In assay [2], `CC(C)C[C@@H](NC(=O)c1cnc2ccccc2n1)C(=O)N[C@@H]1CCCN(S(=O)(=O)c2cccc[n+]2[O-])CC1=O` [Example 101, Quinoxaline-2-carboxylic acid {(S)-3-methyl-1-[3-oxo-1-(1-oxy-pyridine-2-sulfonyl)-azepan-4-ylcarbamoyl]-butyl}amide] displayed a Ki of 11 nM.

In the case of `O=C(N[C@@H](Cc1ccccc1)C(=O)NC1CCCN(S(=O)(=O)c2ccccn2)CC1=O)c1cccc2cccnc12` (stereo partly drawn) [Example 176, Quinoline-8-carboxylic acid {(S)-1-[3-oxo-1-(pyridine-2-sulfonyl)-azepan-4-ylcarbamoyl]-2-phenyl-ethyl}-amide], the Ki in assay [2] was determined as 5.9 nM.

With `CC(C)C[C@@H](NC(=O)c1cc2sccc2s1)C(=O)N[C@@H]1CCCN(S(=O)(=O)c2cccc[n+]2[O-])CC1=O` [Example 62, Thieno[3,2-b]thiophene-2-carboxylic acid {(S)-3-methyl-1-[3-oxo-1-(1-oxy-pyridine-2-sulfonyl)-azepan-4-ylcarbamoyl]-butyl}amide], in assay [2], the inhibitory constant (Ki) stood at 5.3 nM.

In turn, `CC(C)C[C@@H](NC(=O)c1cc2cc(F)ccc2o1)C(=O)N[C@H]1CCCN(S(=O)(=O)c2ccccn2)CC1=O` (stereo in doubt) [Example 166, 5-Fluoro-benzofuran-2-carboxylic acid {(S)-3-methyl-1-[3-oxo-1-(pyridine-2-sulfonyl)-azepan-4-ylcarbamoyl]-butyl}-amide] returned a Ki in assay [2] of 6 nM.

In turn, `CC(C)C[C@H](NC(=O)c1cnc2ccccc2n1)C(=O)N[C@H]1CCCN(S(=O)(=O)c2nccs2)CC1=O` [Example 129, Quinoxaline-2-carboxylic acid {(S)-3-methyl-1-[3-oxo-1-(thiazole-2-sulfonyl)-azepan-4-ylcarbamoyl]-butyl}amide] displayed an inhibition constant Ki in assay [2] of 5.6 nM.

In assay [2], `CC(C)CC(NC(=O)c1ccco1)C(=O)N[C@@H]1CCCN(S(=O)(=O)c2cccc[n+]2[O-])CC1=O` (stereo partly drawn) [Example 75, Furan-2-carboxylic acid {(S)-3-methyl-1-[3-oxo-1-(1-oxy-pyridine-2-sulfonyl)-azepan-4-ylcarbamoyl]-butyl}amide] returned a Ki of 7.5 nM.

For `CC(C)C[C@@H](NC(=O)c1cnc2ccccc2c1)C(=O)N[C@@H]1CCCN(S(=O)(=O)c2ccccn2)CC1=O` [Example 27], in assay [2], the inhibitory constant (Ki) came to 13 nM.

As for `CC(C)C[C@H](NC(=O)c1cc2ccccc2o1)C(=O)N[C@H]1CCCN(S(=O)(=O)c2ncc[nH]2)CC1=O` [Example 41, Benzofuran-2-carboxylic acid {(S)-3-methyl-1-[1-(1H-imidazole-2-sulfonyl)-3-oxo-azepan-4-ylcarbamoyl]-butyl}amide], the inhibition constant (Ki) in assay [2] was determined as 2.9 nM.

Consider `COc1ccc(CCCCC(=O)NC(CC(C)C)C(=O)NC2CCCN(S(=O)(=O)c3ccccn3)CC2=O)cc1` [Example 122, (S)-2-[5-(4-Methoxy-phenyl)-pentanoylamniol-4-methyl-pentanoic acid [3-oxo-1-(pyridine-2-sulfonyl)-azepan-4-yl[-amide], for which the affinity in assay [2] corresponds to a Ki of 8.8 nM.

In assay [2], `CC(C)C[C@@H](NC(=O)c1cc2cc(F)ccc2o1)C(=O)N[C@@H]1CCCN(S(=O)(=O)c2ccccn2)CC1=O` (single isomer, unassigned) [Example 168] showed a Ki of 2.7 nM.

Molecule `CCc1c(C(=O)N[C@@H](CC(C)C)C(=O)N[C@H]2CCN(S(=O)(=O)c3cccc[n+]3[O-])CCC2=O)oc2ccccc12` [Example 202, 3-Ethyl-benzofuran-2-carboxylic acid {(S)-3-methyl-1-[3-oxo-1-(1-oxy-pyridine-2-sulfonyl)-azepan-4-ylcarbamoyl]-butyl}-amide] showed a Ki in assay [2] of 8.7 nM.
